Test results taken from patent publication US12016834B2, “Small molecule inhibitors of SLC25A1” (GEORGETOWN UNIVERSITY, priority 2017, dated 2024).

Key:
[1] = system: MP2 cells; experiment: Tumor xenograft in immuno-compromised mice; type: in vivo; conditions: co-treatment with AZD9291, relative to AZD9291 alone
Procedure: (§1) Mice and treatments. To produce tumor xenografts, 5×10^6 cells derived from either monolayer cultures or GMSC expanded spheres were dissociated with Accutase, resuspended in PBS, and injected subcutaneously in the flanks of female balb athymic mice. Once detectable tumors started to form, their sizes were measured with a caliper in three dimensions and mice were randomized in the different treatment groups. […] Cisplatin was administered at 26 mg/kg every three or four days. AZD9291 was administered at 25/mg/Kg every 3 days. Serial measurements were made every day after the identification of the initial tumor mass to determine growth curves in vivo. Tumor volume was calculated using the formula for a prolate spheroid: volume=[…], where a is the width and b is the length. All animals were sacrificed when the tumors exceeded 1.5 cm. At the completion of experiments, tumors were excised, weighed, and the statistical significances of differences in tumor volume were assessed. Animals were monitored once a week for the presence of signs of disease, particularly neurological disturbances or weight loss, and they were weighed periodically.
(§2) Statistics. For the animal studies, power calculations for each treatment group were first determined. The number of animals was calculated to detect a 50% difference at alpha=0.05 and power=0.8. Statistical significance was assessed using both unpaired, two-tailed Student t test, and analysis of variance (ANOVA). Significant differences are indicated using the standard […] scale (P<0.05, significant; P<0.01, highly significant; P<0.001, extremely significant).

[2] = system: MP1 cells; experiment: Tumor xenograft in immuno-compromised mice; type: in vivo
Procedure: as §1, §2

[3] = system: H1299 cells; experiment: Seahorse oxygen consumption rate (mitochondrial stress test); type: cell-based, human
Procedure: Seahorse extracellular flux analyzer experiments. Cells derived from spheres or monolayer cultures were dissociated and plated overnight at 12,000 cells/well in DMEM with 10% FBS, 5 mM glucose, 1 mM pyruvate, 2 mM glutamine.
For the mitochondrial stress test, the media was replaced with DMEM without FBS or bicarbonate, containing 5 mM glucose, 1 mM pyruvate, 2 mM glutamine and placed in a CO2 free incubator at 37° C. for 1 hour, and then transferred to the Xf96 extracellular flux analyzer (Agilent; Santa Clara, CA). The program consisted of 3 measurements of OCR/ECAR before the injection of each drug: oligomycin (0.5 μM final concentration), FCCP (2 μM) and rotenone/antimycin (0.5 μM of each). […] There were 3 measurements of OCR/ECAR before each injection: glucose (10 mM final concentration), oligomycin (0.5 […] (50 mM). For the analysis of glutamine oxidation, the protocol was the same as the glucose stress test, but with glutamine being the only compound injected (final concentration 4 mM) and OCR/ECAR measured for 60 minutes. When spheres were analyzed, they were dissociated with StemPro® Accutase® (Thermo Scientific; Waltham, MA) and plated under the same conditions as above as for the monolayers the day before the assay (H1299 spheres), or in stem cell media (See Stem Cell Media) with the wells coated in 15 μL of 2% geltrex diluted in DMEM:F12 (Thermo Scientific). […]

[4] = system: MP3 cells; experiment: Viability (Crystal Violet) and drug interaction (R index); type: cell-based, human; conditions: CTPI-2 with either cisplatin or AZD9291, 5 days
Procedure: (§3) Cellular proliferation and cytotoxicity assays. […] The cells were then washed with 1×PBS and fixed with cold 100% methanol at−20° C. for 20 minutes. Methanol was washed off and the cells were stained with 0.5% crystal violet dissolved in 25% methanol and water at 4° C. for 20 minutes. The staining was washed off using deionized (DI) water and the plate was dried overnight. On the second day, 100 mM sodium citrate in 50% ethanol and 50% water was added to the wells and absorbance at 550 nm was measured and corrected with readings at 405 nm. In other experiments, cell viability was assessed by trypan blue exclusion and visual count of the live cells was performed.
(§4) Statistical methods for drug interactions. […] Sexp/Sobs=1.0 denotes an additive interaction, while >1.0 denotes a synergistic interaction. R index values approaching 2.0 are indicative of strong synergy.

[5] = system: MP2 cells; experiment: as above; type: cell-based, human; conditions: CTPI-2 with either cisplatin or AZD9291, 5 days
Procedure: as §3, §4

[6] = system: MP1 cells; experiment: as above; type: cell-based, human
Procedure: as §3, §4

[7] = system: MP2 cells; experiment: Self-renewal and sphere forming in methylcellulose; type: cell-based, human; conditions: semi-solid media
Procedure: (§5) Self-renewal assays. Tumor cells cultured as spheroids were dissociated and diluted in 2× sphere media containing 1% methyl cellulose, which was previously dissolved in cold DMEM/F12 media. Either 200, 500, or 1000 cells were then plated in each 96 well and were incubated in the presence or absence of drugs, as indicated. The spheres were allowed to form for a period of a week to ten days, at which point they were counted. Six biological replicates were used for quantification of the results.
(§6) Primary lung cancer cultures and GMSC. Surgical samples were minced and digested with dispase (50 U/ml) in DMEM media containing 5% serum for 1 hour. Pleural effusions were centrifuged, washed once in PBS, and then plated. All primary cultures were initially grown on 6-well plates pre-coated with 2% Geltrex (Life Technologies; Carlsbad, CA) and 1% Maxgel (Sigma Aldrich). Maxgel is a humanized matrix, native and non-denatured. The inclusion of Maxgel in the system enhanced the initial attachment of primary tumor cells, partially because Maxgel provides a more natural ECM conformational substrate. The day after plating, the media containing unattached cells was typically transferred to a fresh plate, in most of cases generating new attached cultures. […]

[8] = system: MP1 cells; experiment: Self-renewal and sphere forming in methylcellulose; type: cell-based, human; conditions: semi-solid media
Procedure: as §5, §6

## O=C(O)c1ccccc1NS(=O)(=O)c1ccc(Cl)c([N+](=O)[O-])c1 [CTPI-2]
[1]
  tumor growth inhibition, combination: prominent enhancement of tumor growth inhibition
[2]; 26 mg/Kg alternate days i.p., GMSC-derived versus monolayer-derived tumors
  tumor growth inhibition, single agent: more effective in inhibiting the growth of GMSC-derived MP1 tumors
[2]; 26 mg/Kg at alternate days intra-peritoneally
  body weights: remained unchanged
[2]; 26 mg/Kg at alternate days intra-peritoneally, entire treatment period
  tolerability: well tolerated
[2]; CTPI-2 added to the cisplatin regimen
  tumor growth inhibition, combination: very significant
[2]; GMSC-derived tumors (FIG. 7F)
  stem cell markers in tumors (immuno-blot): dramatic reduction
[2]; relative to mock- and cisplatin-treated groups
  tumor doubling times: significantly extended the tumor doubling times
[3]; SLC25A1 shRNA cells
  respiratory activity of cells expressing the SLC25A1 shRNA: failed to affect the respiratory activity
[3]; treated for three hours, spheres and monolayers
  respiratory capacity (OCR): inhibited respiratory capacity in a dose-dependent fashion
[4]
  re-sensitization, type of drug interaction (R index): starkly synergistic
[5]
  re-sensitization, type of drug interaction (R index): starkly synergistic
[6]; CTPI-2 with either cisplatin or AZD9291, 5 days
  re-sensitization, type of drug interaction (R index): starkly synergistic
[6]; co-treatment with cisplatin (FIG. 15D)
  sensitivity of a single cisplatin-resistant clone: re-sensitized to cisplatin
[7]
  self-renewal and sphere forming ability: blunted self-renewal and sphere forming ability
[8]
  self-renewal and sphere forming ability: blunted self-renewal and sphere forming ability
